Measured values from paper PMC9090415, “Discovery of small molecule inhibitors of Plasmodium falciparum apicoplast DNA polymerase” (Journal of Enzyme Inhibition and Medicinal Chemistry, 2022).
Like-named read-outs stand apart in the source and are kept apart here.

Molecular target: P. falciparum apicoplast DNA polymerase (Pf-apPOL) (Plasmodium falciparum, UniProt Q8ILY1)
Test: Fluorescence-based high-throughput DNA polymerase assay (molecular beacon), primary screen and dose-response;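 on % inhibition Apol 40': compound concentration given in µM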
Type: biochemical
Conditions: for DNA Pol: 90 min, 10 µM
Procedure, shortened: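 Single-point screening used 10 µM compound with 20 nM polymerase, 20 nM hairpin substrate and 6 µM dNTPs for 90 min at 25 °C. Confirmatory titrations (2.5–80 µM) followed fluorescence at three times, and IC50 was derived from a fit including a cooperativity term n.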

Sequence of P. falciparum apicoplast DNA polymerase (Pf-apPOL) (Q8ILY1 entry or part of it): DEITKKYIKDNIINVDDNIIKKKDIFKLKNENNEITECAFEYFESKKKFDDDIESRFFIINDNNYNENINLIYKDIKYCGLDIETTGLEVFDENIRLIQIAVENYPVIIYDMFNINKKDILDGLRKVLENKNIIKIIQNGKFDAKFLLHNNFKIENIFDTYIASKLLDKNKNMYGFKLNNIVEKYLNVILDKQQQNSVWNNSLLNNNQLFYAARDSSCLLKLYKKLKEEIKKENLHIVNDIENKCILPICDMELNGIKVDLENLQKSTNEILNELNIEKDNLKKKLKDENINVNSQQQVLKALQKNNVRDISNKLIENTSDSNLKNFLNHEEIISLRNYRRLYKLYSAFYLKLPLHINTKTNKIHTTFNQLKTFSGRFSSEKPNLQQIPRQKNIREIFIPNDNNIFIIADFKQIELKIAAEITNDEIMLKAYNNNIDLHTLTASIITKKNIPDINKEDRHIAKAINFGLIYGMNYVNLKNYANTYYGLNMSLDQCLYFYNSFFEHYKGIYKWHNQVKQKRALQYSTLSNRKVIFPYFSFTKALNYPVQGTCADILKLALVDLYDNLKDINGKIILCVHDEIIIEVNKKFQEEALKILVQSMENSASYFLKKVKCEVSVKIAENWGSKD

**Q.** How did the “DNA Pol” value ("DNA Pol" of the 186 hits list (screen value)) turn out when `CCCCC(=O)N1CCc2c(nc3cc(-c4ccccc4Cl)[nH]n3c2=O)C1` [Molecule 37, CCCCC(=O)N1CCc2c(C1)nc1n(c2=O)[nH]c(c1)c1ccccc1Cl] was run?
**A.** 43

**Q.** What about the “% inhibition Apo pol 10'” value (DRC-1, concentration 2.5) of the same compound?
**A.** 9.306%

**Q.** What about the “% inhibition Apo pol 10'” value (DRC-1, concentration 5) of the same compound?
**A.** 24.2361%

**Q.** And the “% inhibition Apo pol 10'” value (DRC-1, concentration 10)?
**A.** 50.6318%

**Q.** What about the “% inhibition Apo pol 10'” value (DRC-1, concentration 20) of the same compound?
**A.** 65.8539%

**Q.** What about the “% inhibition Apo pol 10'” value (DRC-1, concentration 40) of the same compound?
**A.** 79.9976%

**Q.** And the “% inhibition Apo pol 10'” value (DRC-1, concentration 80)?
**A.** 82.2007%

**Q.** And the “% inhibition Apol 90'” value (DRC-1, concentration 2.5)?
**A.** 2.3506%

**Q.** What about the “% inhibition Apol 90'” value (DRC-1, concentration 5) of the same compound?
**A.** 13.0098%

**Q.** And the “% inhibition Apol 90'” value (DRC-1, concentration 10)?
**A.** 36.7881%

**Q.** And the “% inhibition Apol 90'” value (DRC-1, concentration 20)?
**A.** 53.1884%

**Q.** What about the “% inhibition Apol 90'” value (DRC-1, concentration 40) of the same compound?
**A.** 71.0429%

**Q.** What about the “% inhibition Apol 90'” value (DRC-1, concentration 80) of the same compound?
**A.** 81.0911%

**Q.** And the “% inhibition apPOL 180'” value (DRC-1, concentration 2.5)?
**A.** -3.183%

**Q.** What about the “% inhibition apPOL 180'” value (DRC-1, concentration 5) of the same compound?
**A.** 4.447%

**Q.** What about the “% inhibition apPOL 180'” value (DRC-1, concentration 10) of the same compound?
**A.** 22.1273%

**Q.** What about the “% inhibition apPOL 180'” value (DRC-1, concentration 20) of the same compound?
**A.** 36.1098%

**Q.** And the “% inhibition apPOL 180'” value (DRC-1, concentration 40)?
**A.** 57.5163%

**Q.** What about the “% inhibition apPOL 180'” value (DRC-1, concentration 80) of the same compound?
**A.** 72.7607%

**Q.** And the “% inhibition Apo pol 5'” value (DRC-2, concentration 2.5)?
**A.** 11%

**Q.** What about the “% inhibition Apo pol 5'” value (DRC-2, concentration 5) of the same compound?
**A.** 13%

**Q.** What about the “% inhibition Apo pol 5'” value (DRC-2, concentration 10) of the same compound?
**A.** 29%

**Q.** What about the “% inhibition Apo pol 5'” value (DRC-2, concentration 20) of the same compound?
**A.** 33%

**Q.** And the “% inhibition Apo pol 5'” value (DRC-2, concentration 40)?
**A.** 46%

**Q.** What about the “% inhibition Apo pol 5'” value (DRC-2, concentration 80) of the same compound?
**A.** 35%

**Q.** And the “% inhibition Apol 40'” value (DRC-2, concentration 2.5)?
**A.** 13%

**Q.** And the “% inhibition Apol 40'” value (DRC-2, concentration 5)?
**A.** 15%

**Q.** And the “% inhibition Apol 40'” value (DRC-2, concentration 10)?
**A.** 33%

**Q.** What about the “% inhibition Apol 40'” value (DRC-2, concentration 20) of the same compound?
**A.** 38%

**Q.** What about the “% inhibition Apol 40'” value (DRC-2, concentration 40) of the same compound?
**A.** 62%

**Q.** And the “% inhibition Apol 40'” value (DRC-2, concentration 80)?
**A.** 62%

**Q.** And the “% inhibition ApPOL 90'” value (DRC-2, concentration 2.5)?
**A.** 12%

**Q.** What about the “% inhibition ApPOL 90'” value (DRC-2, concentration 5) of the same compound?
**A.** 13%

**Q.** What about the “% inhibition ApPOL 90'” value (DRC-2, concentration 10) of the same compound?
**A.** 30%

**Q.** And the “% inhibition ApPOL 90'” value (DRC-2, concentration 20)?
**A.** 35%

**Q.** What about the “% inhibition ApPOL 90'” value (DRC-2, concentration 40) of the same compound?
**A.** 63%

**Q.** What about the “% inhibition ApPOL 90'” value (DRC-2, concentration 80) of the same compound?
**A.** 68%

**Q.** What about the “% inhibition apPOL 180'” value (DRC-2, concentration 2.5) of the same compound?
**A.** 7%

**Q.** And the “% inhibition apPOL 180'” value (DRC-2, concentration 5)?
**A.** 8.42%

**Q.** What about the “% inhibition apPOL 180'” value (DRC-2, concentration 10) of the same compound?
**A.** 23%

**Q.** And the “% inhibition apPOL 180'” value (DRC-2, concentration 20)?
**A.** 23%

**Q.** What about the “% inhibition apPOL 180'” value (DRC-2, concentration 40) of the same compound?
**A.** 55%

**Q.** And the “% inhibition apPOL 180'” value (DRC-2, concentration 80)?
**A.** 68%

**Q.** What about the “DNA Pol” value (primary screen value, DNA Pol) of the same compound?
**A.** 43

**Q.** `OC(C#Cc1ccccc1)c1ccco1` (stereo not shown) [Molecule 95] was tested. Which IC50 (read-out: IC50 Pf-apPOL, Table 2) did it give?
**A.** 7.4 ± 0.4 µM

**Q.** And the IC50 (supplemental file 2, sheet IC50 nontoxic compounds, Pf-apPOL)?
**A.** 7.4 µM
